pIC50: −log10 of the molar value.
Molecular target: Telomerase reverse transcriptase (Homo sapiens, UniProt O14746)
Test: Inhibitory concentration against human telomerase.

Chain of Telomerase reverse transcriptase (O14746 whole entry): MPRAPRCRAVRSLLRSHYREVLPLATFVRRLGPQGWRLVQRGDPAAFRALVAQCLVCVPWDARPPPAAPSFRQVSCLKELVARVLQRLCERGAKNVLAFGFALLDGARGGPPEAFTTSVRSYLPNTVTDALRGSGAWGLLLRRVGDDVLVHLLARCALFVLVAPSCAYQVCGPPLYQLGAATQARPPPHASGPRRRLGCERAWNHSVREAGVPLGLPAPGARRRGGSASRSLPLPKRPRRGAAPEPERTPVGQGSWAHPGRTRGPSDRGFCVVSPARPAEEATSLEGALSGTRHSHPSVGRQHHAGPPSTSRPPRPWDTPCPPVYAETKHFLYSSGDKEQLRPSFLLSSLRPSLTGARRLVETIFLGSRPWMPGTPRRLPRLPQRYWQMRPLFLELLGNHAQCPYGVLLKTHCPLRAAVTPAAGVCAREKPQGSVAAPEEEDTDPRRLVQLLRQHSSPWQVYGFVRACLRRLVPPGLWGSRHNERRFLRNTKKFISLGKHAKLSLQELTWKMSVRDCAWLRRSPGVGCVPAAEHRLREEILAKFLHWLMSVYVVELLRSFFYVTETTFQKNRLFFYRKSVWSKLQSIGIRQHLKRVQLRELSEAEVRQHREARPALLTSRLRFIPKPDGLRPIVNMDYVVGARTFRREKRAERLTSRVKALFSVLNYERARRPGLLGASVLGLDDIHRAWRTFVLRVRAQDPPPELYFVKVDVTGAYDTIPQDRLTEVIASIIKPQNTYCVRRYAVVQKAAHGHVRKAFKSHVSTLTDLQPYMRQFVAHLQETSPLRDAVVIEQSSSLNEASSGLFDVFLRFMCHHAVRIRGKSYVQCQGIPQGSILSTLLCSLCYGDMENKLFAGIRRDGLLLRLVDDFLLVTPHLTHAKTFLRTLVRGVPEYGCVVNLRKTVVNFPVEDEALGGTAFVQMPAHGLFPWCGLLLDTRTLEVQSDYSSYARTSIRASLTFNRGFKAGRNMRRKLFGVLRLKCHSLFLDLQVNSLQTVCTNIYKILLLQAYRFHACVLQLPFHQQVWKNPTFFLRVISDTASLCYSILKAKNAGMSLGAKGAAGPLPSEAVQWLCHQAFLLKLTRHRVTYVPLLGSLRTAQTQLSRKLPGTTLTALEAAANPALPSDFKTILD

- pIC50: 4.64
SMILES: C[N+]1(CCC(=O)Nc2ccc3c(c2)C(=O)c2ccc(NC(=O)CC[N+]4(C)CCCCC4CO)cc2C3=O)CCCCC1CO (stereo unspecified)

From ChEMBL document CHEMBL1130081, “Inhibition of human telomerase by a G-quadruplex-interactive compound” (J Med Chem, 1997)
